Where two headings read alike, the source gives them in different places.
What was measured:
Design in all cases: species or system Lymantria dispar
male gypsy moth antenna = experiment: Coupled gas chromatographic-electroantennographic detection (GC-EAD); details: EAD peak size and shape (sharp/broad)
Outline: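 GC column effluent split between flame ionization detector and an excised male moth antenna held between saline-filled glass capillary electrodes, tip removed, in a warm air stream. Antennal potentials assigned to compounds by matching retention times with FID peaks.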

L. dispar PBP 1 = experiment: Pheromone-binding protein (PBP) ligand binding assay, PBP1
Description: (§1) A. The protein and ligand are incubated in buffer overnight. B. For half of the incubation mixture, the free ligand (L) is separated from the protein-bound ligand (P.L) by size-exclusion chromatography on P2 Gel (BioRad, exclusion limit 2000 Da). The protein elutes from the small column bed, with its ligand bound (see Examples and […] et al. 2000; Staddon and Everton 1980), while the free ligand is retained on the column ([…] et al. 2000). C. […] The extract from the filtrate (B) contains the protein-bound ligand and the extract from the incubation mixture (A) contains all the ligand (bound and free) present in the aqueous phase. The extracts are analyzed by GC-MS, to obtain values for total ligand in solution (L+P.L) and for protein-bound ligand (P.L). These can then be used to calculate % bound (Table 3). These assays were performed as described in FIG. 3 and as follows: L. dispar PBP 1 or PBP 2 was incubated with the test compound or mini-library. The PBP and the ligand(s) (L) were left to equilibrate (eq 2) overnight. The non-bound ligand was then separated from the protein-bound material (PBP.L) by size-exclusion chromatography. By determining the total ligand in solution at equilibrium (eq. 3) and the protein-bound ligand, it is possible to estimate the percentage of ligand bound to the protein at equilibrium (eq. 4). […] This binding assay has been validated extensively in previous studies ([…] et al. 2000). The components of each mini-library separated cleanly by GC, so it was possible to monitor binding of individual components. PBP+L⇄PBP·L (eq. 2) [L]tot=[L]+[PBP·L] (eq. 3) % bound=100×[PBP·L]/[L]tot (eq. 4) Results: The members of each mini-library separated cleanly by GC, therefore it was possible to monitor binding of individual members to PBP1 or PBP2, the two known PBPs in the gypsy moth, by extraction from the aqueous incubation mixture, followed by GC analysis of the extract (FIG. 3).

L. dispar PBP 2 = experiment: Pheromone-binding protein (PBP) ligand binding assay, PBP2
Description: as §1

[1] = test system: male gypsy moth antenna response to pheromone (+)-1; experiment: EAG short-term (STI) and long-term (LTI) inhibition of pheromone signaling (Example 5); details: Lymantria dispar; for inhibition at 0.001 mg: mixed plume (+)-1 100 ng + compound 1 μg; for inhibition at 0.001 mg / inhibition at 0.01 mg / inhibition at 0.1 mg: negative = enhancement, read-out: Activity (%): short-term inhibition (STI); for inhibition at 0.01 mg: mixed plume (+)-1 100 ng + compound 10 μg; for inhibition at 0.1 mg: mixed plume (+)-1 100 ng + compound 100 μg (puff v); for inhibition at 100 µg, 0.1 mg: read-out: Activity (%): long-term inhibition (LTI)
Description: The puffs are numbered i-vi and were: i=air, ii=pure pheromone (+)-disparlure, (+)-1, (100 ng), iii-v=disparlure mixed with the test compound, the latter at three different doses, vi=pure (+)-1. Depolarizations from the resting potential are labeled d; hyperpolarizations seen during the recovery phase after a puff are labeled r. Subscripts refer to the puff number. FIG. 5A. Typical trace for compound 3c{2,3}. FIG. 5B. Typical trace for compound 3a{4,4}.
For other compounds, EAG traces were recorded as follows: a fully dislodged antenna from a male gypsy moth was mounted on the end of a reference electrode (a glass capillary with a silver wire, filled with buffered saline: 5 mM NaH2PO4, 10 mM Na2SO4, 4.5 mM KHCO3, 18 mM MgCl2, 4 mM CaCl2, 6 mM KCl, the pH is adjusted to 6.8 using 5 mM Na2HPO4). The tip of the antenna was severed with microscissors and placed in the recording electrode, which was mounted on a micromanipulator. A constant stream of air, that had been purified (charcoal filter), was blown over the antenna at a rate of 300 mL/min. Test samples were delivered through a stimulus delivery tube with a side opening 2 cm from the distal opening. The proximal end of the delivery tube was connected to a controlled stimulus delivery apparatus (Stimulus controller CS-05 Syntech Research and Equipment, NL 1200BM, Hilversum, The Netherlands). The distal end of the delivery tube pointed at the antenna (1 cm from the antenna). The side opening was connected to a cartridge fashioned from a Pasteur pipette which contained a small filter paper (Whatman No. 1) with the stimulus. These pipette cartridges could be prepared a few days in advance and stored at −80° C. wrapped in Al foil and in sealable plastic bags. Sample cartridges were mounted once they had reached room temperature. The stimulus delivery apparatus delivered a second stream of air (a puff) through the Pasteur pipette at a velocity of 600 mL/min, at a specified point in time, for 0.3 s. Receptor potentials of the antennae in response to test stimuli were recorded with a Syntech IDAC probe, amplifier and interfaced board, and were analyzed with EAG Syntech Software Version 2.4 (1996). See FIG. 4 for a representative EAG trace. The EAG traces were evaluated as follows (see FIG. 5).
The net depolarizations, d(net) (in mV), of puffs ii-vi,d(sample), (corrected for the depolarization with clean air, d(air)) d(net)=d(sample)−d(air) (Eq. 1)
The percentage short-term inhibition for each compound (STI(compound)) of puffs iii-v, relative to the first pure pheromone puff (ii) STI(compound)=100×(d(net)(ii)−d(net)(compound))/d(net)(ii) (Eq. 2)
c) the percentage long-term inhibition for each compound (LTI(compound)) of the pure pheromone puff that followed the last mixed puff (vi) relative to the first pure pheromone puff (ii) LTI(compound)=100×(d(net)(ii)−d(net)(vi))/d(net)(ii) (Eq. 3)
The compounds we tested gave weak or no olfactory responses by themselves in electroantennogram (EAG) experiments. The EAG trace reflects the change in the potential across the antenna when an air puff with an odorant is passed over the antenna. To understand the agonistic or antagonistic effect of the compounds on pheromone responses by male moth antennae, four types of EAG experiment were conducted. First, the response of the antenna elicited by a stimulus of pure (+)-1 was compared to the responses elicited by blends of (+)-1 with the test compound (FIG. 5). […] This effect was termed short-term inhibition (STI). […] Second, the time decay and dose responses for LTI activities were studied. Third, the strongest inhibitors were tested for their ability to cause LTI by themselves.
This experiment explored the agonistic or antagonistic activity of the synthetic aromatic compounds (Scheme 1 and eugenol and alkyl eugenols) with the gypsy moth pheromone (+)-1. […]

[2] = test system: male gypsy moth antenna response to mixed pheromone/modulator plume; experiment: EAG peak broadening (PB) (Example 11); details: mixed plume, 100 μg compound and 100 ng pheromone (puff v vs puff ii)
Description: A mixed pheromone/modulator plume could elicit a prolonged response (FIG. 1A, puff v; FIG. 2), and this was termed peak broadening (PB). PB was calculated from the EAG traces as follows: PB=100×(Δtv−Δtii)/Δtii
Where Δt was the width of the EAG peak (in s) from the start of the depolarization to the return to background potential.

[3] = test system: male gypsy moth antenna response to odorants other than (+)-1; experiment: Long-term inhibition of responses to other pheromone and host plant odorants, EAG (Example 8, first objective)
Description: To determine whether the long-term inhibitory effects of 3c{2,3} and DEET are specific to (+)-1 or also apply to other odorants, compound 3c{2,3} and DEET were tested further with other odorants: (−)-1, racemic 1, dispar alkene, methyl eugenol and 1-hexanol.
These included (−)-1, racemic 1, dispar alkene (the alkene corresponding to the carbon framework of 1), methyl eugenol (a characteristic oak wood odorant) and 1-hexanol (a green leaf volatile, shown previously to be detected by gypsy moth antennae). For the pure odorant puffs, (−)-1 and racemic 1 were administered at 100 ng/cartridge, the alkene, methyl eugenol was administered at 1 μg/cartridge and 1-hexanol was administered at 100 μg/cartridge. The antagonists were both administered at 100 μg/cartridge, mixed with the appropriate dose of the odorant. The puff order was: i) air, ii) pure odorant, iii) odorant+antagonist, iv) pure odorant. All puffs were corrected for the air response as in Eq. 1. STI values were obtained from the depolarization […]. LTI values were obtained by comparing the depolarization of puff iv relative to that of puff ii.

[4] = test system: male gypsy moth antennae response to pheromone (+)-1 with plant odors; experiment: Effect on mixed pheromone/plant odorant stimulus, EAG (Example 8, second objective); details: (+)-1 100 ng + 1-hexanol 100 μg, no antagonist
Description: A second objective for this experiment was to determine whether the oak volatiles, methyl eugenol and 1-hexanol, can enhance the antennal response to (+)-1 and whether the mixed pheromone/plant odorant stimulus can be inhibited by compound 3c{2,3} or DEET. The puff order was: i) air, ii) pure (+)-1 (100 ng), iii) (+)-1 (100 ng) and plant odorant (1 μg for methyl eugenol and 100 μg for 1-hexanol), iv) (+)-1 and plant odorant as in iii+antagonist (100 μg), v) same as in iii. Depolarizations were corrected for the air response as in Eq. 1 and the short-term effects were calculated for puff iii relative to puff ii, and for puff iv relative to puff ii. Long-term effects were calculated for puff v relative to puff iii (for LTI of the mixed pheromone/plant odorant plume) and for puff v relative to puff ii (to determine whether long-term effects of the plant odorant and of the antagonist cancel).

[5] = member tested within library 3c{1, 1-5}
[6] = member tested within library 3c{2, 1-5}
[7] = pure (+)-1 100 ng plume following mixed plume with 100 μg compound, mean ± S.E.
[8] = member tested within library 3c{4, 1-5}
[9] = member tested within library 3c{5, 1-5}
[10] = tested as single compound, means ± S.E., 4 replicates

SMILES	GC-EAD activity (male gypsy moth antenna)	inhibition at 0.001 mg ([1]; mean ± S.E.) [%]	inhibition at 0.01 mg ([1]; mean ± S.E.) [%]	inhibition at 0.1 mg ([1]; mean ± S.E.) [%]	inhibition at 100 µg, 0.1 mg [1, 7] [%]	activity (% peak broadening) [2] [%]	other results
CCOc1ccc(OC)cc1 [3c{1,2}, 1-ethoxy-4-methoxy benzene]	++ sharp	–	–	–	–	–	PBP1 (% bound) (L. dispar PBP 1; [5]): 15 ± 0.4%; PBP1 (% bound) (L. dispar PBP 1; [6]): 30 ± 0.2%; PBP2 (% bound) (L. dispar PBP 2; [5]): 12 ± 1.5%; PBP2 (% bound) (L. dispar PBP 2; [6]): 40 ± 0.1%
CCCOc1ccccc1OCCC [3a{3,3}, 1,2-Dipropoxy benzene]	++ sharp	37 ± 14	4 ± 21	-11 ± 36	36 ± 9	80 ± 31	–
CCCCOc1ccc(OCC)cc1 [3c{2,4}, 1-butoxy-4-ethoxy benzene]	None	–	–	–	–	–	PBP1 (% bound) (L. dispar PBP 1; [8]): 10 ± 0.4%
CCCCCCO [Compound 1-hexanol, 1-hexanol, reference compound]	–	–	–	–	–	–	EAG response to the pure odorant (in words) [3]: weak odorant; short-term effect with the plant synergist [4]: −19 ± 24 (10)
CCCOc1ccc(OCCC(C)C)cc1 [3c{3,5}, 1-(3-methyl-butyloxy)-4-propoxy benzene]	None	10 ± 11	-120 ± 20	-145 ± 35	4 ± 7	–	PBP1 (% bound) (L. dispar PBP 1; member tested within library 3c{3, 1-5}): 1 ± 0.2%; PBP1 (% bound) (L. dispar PBP 1; [9]): 3 ± 0.1%; PBP2 (% bound) (L. dispar PBP 2; [9]): 2 ± 0.02%
CCCCOc1ccccc1OCCCC [3a{4,4}, 1,2-Dibutoxy benzene]	+ broad	-48 ± 28	14 ± 31	27 ± 29	49 ± 12	86 ± 32	–
COc1ccc(OCCC(C)C)cc1 [3c{1,5}, 1-methoxy-4-(3-methyl-butyloxy) benzene]	None	–	–	–	–	–	PBP1 (% bound) (L. dispar PBP 1; [5]): 1 ± 0.7%; PBP1 (% bound) (L. dispar PBP 1; [9]): 7 ± 0.1%; PBP2 (% bound) (L. dispar PBP 2; [5]): 2 ± 2.5%; PBP2 (% bound) (L. dispar PBP 2; [9]): 5 ± 0.1%
CCOc1ccc(OCCC(C)C)cc1 [3c{2,5}, 1-ethoxy-4-(3-methyl-butyloxy) benzene]	None	–	–	–	–	–	PBP1 (% bound) (L. dispar PBP 1; [6]): 4 ± 0.2%; PBP1 (% bound) (L. dispar PBP 1; [9]): 2 ± 0.1%; PBP2 (% bound) (L. dispar PBP 2; [6]): 14 ± 0.2%; PBP2 (% bound) (L. dispar PBP 2; [9]): 3 ± 0.03%
C=CCOc1cccc(OCC)c1 [3b{2,6}, 1-allyloxy-3-ethoxybenzene]	None	-115 ± 43	-17 ± 54	-50 ± 74	25 ± 8	77 ± 33	–
COc1ccccc1OC [3a{1,1}, 1,2-Dimethoxy benzene]	++ sharp	–	–	–	–	99 ± 25	inhibition at 100 µg, 0.1 mg [1]: 18 ± 13%
CCCCOc1ccc(OCCC)cc1 [3c{3,4}, 1-butoxy-4-propoxy benzene]	None	-11 ± 18	-90 ± 23	-180 ± 26	22 ± 12	–	PBP1 (% bound) (L. dispar PBP 1; [8]): 4 ± 0.3%
CCCCOc1ccc(OC)cc1 [3c{1,4}, 1-butoxy-4-methoxy benzene]	None	–	–	–	–	–	PBP1 (% bound) (L. dispar PBP 1; [8]): 20 ± 0.4%
CCOc1ccccc1OCC [3a{2,2}, 1,2-Diethoxy benzene]	+ sharp	-10 ± 29	-23 ± 42	-22 ± 69	15 ± 11	106 ± 32	–
CCCCOc1ccc(OCCCC)cc1 [3c{4,4}, 1,4-Dibutoxy benzene]	–	-107 ± 41	-90 ± 57	–	7 ± 14	–	PBP1 (% bound) (L. dispar PBP 1; [10]): 4 ± 0.1%; PBP2 (% bound) (L. dispar PBP 2; [10]): 8 ± 0.3%

— patent publication US9497963B2, “Methods and compositions for control of gypsy moth, Lymantria dispar” (Simon Fraser University, priority 2008, dated 2016)
